In US20250262188A1, “Methods of Increasing the Plasma Drug Exposure of Anticancer Agents” (Scandion Oncology A/S, priority 2021, published 2025):

Experiments:
[1] = target: T1, BCRP (Homo sapiens, UniProt Q9UNQ0); assay: 3H-SN-38 uptake in HT29 SN-38 resistant cell monolayers (Example 6); assay type: cell-based
T1 construct: endogenous in cells; host or cells: HT29 parental and HT29 SN38-resistant colorectal cancer cells
T1 sequence (Q9UNQ0 1-655): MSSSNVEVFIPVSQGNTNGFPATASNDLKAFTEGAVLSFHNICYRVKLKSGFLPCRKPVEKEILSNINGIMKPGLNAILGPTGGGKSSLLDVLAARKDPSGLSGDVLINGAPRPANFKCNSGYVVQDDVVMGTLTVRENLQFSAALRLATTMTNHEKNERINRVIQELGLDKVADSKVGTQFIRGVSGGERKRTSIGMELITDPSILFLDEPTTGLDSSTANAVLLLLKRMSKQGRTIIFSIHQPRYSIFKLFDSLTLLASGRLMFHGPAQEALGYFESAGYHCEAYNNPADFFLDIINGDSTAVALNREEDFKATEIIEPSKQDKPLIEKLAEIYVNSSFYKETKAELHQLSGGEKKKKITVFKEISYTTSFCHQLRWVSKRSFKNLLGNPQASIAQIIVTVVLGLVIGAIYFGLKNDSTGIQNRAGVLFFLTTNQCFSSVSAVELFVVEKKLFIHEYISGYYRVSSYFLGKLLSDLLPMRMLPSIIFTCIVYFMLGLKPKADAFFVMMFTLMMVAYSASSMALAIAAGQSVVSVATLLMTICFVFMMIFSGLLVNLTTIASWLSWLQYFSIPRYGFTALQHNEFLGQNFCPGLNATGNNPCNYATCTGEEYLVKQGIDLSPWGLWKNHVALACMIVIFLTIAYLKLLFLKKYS
Procedure: (§1) All treatments were investigated in three technical replicates (N=3). On the day of experimentation, the culture media was exchanged with 100 μL transport buffer (HBSS, 0.05% BSA, 10 mM HEPES, pH 7.4) and cells were incubated for 15 minutes at 37° C.
(§2) Subsequently, the blank transport buffer was exchanged with 50 μL transport buffer containing the different compounds (in 2x of the final concentration) to be tested and incubated for 15 minutes at 37° C. The uptake experiment was started by adding 50 μL of ^3H-SN38 at a concentration of 2 μCi/mL to all wells (the resulting concentration of ^3H-SN38 during the experiment was 1 μCi/mL). The uptake experiment was stopped after 15 minutes of incubation at 37° C. by removing the transport buffer from all wells.
(§3) The cell monolayers were subsequently washed twice by adding/removing ice-cold transport buffer twice and finally the cell monolayers were lysed by incubation in 100 μl of 0.1% TritonX-100 for 15 minutes at ambient temperature. Cell lysates were transferred to scintillation vials containing 2 mL of scintillation fluid (Ultima Gold, PerkinElmer). Each well was washed with 2×100 μL purified water (milliQ), which was also transferred to respective scintillation vials.

[2] = target: T1, BCRP; assay: 3H-SN-38 uptake in HT29 parental cell monolayers (Example 6); assay type: cell-based
Procedure: as §1, §2, §3

[3] = SN-38 PK profile and tolerability in metastatic colorectal cancer patients treated with SCO-101 and FOLFIRI (Example 2); assay type: in vivo, human
Procedure: Patients with metastatic colorectal cancer were included in a study and treated with a combination of SCO-101 and FOLFIRI (combination of irinotecan, 5-FU and leucovorin) in 14 day treatment cycles. Patients received varying doses of Irinotecan between 50% and 80% of the recommended dose of Irinotecan (180 mg/m^2) according to their individual tolerability, which is standard practise. On days 1, 2, 3, 4, 5 and 6 in each treatment cycle, patients received one fixed daily dose of 150 mg SCO-101 taken in the morning at least 30 minutes before ingestion of food. On day 5 to 7, patients received FOLFIRI as specified for Colorectal cancer combination regimen 2.
Blood plasma samples were analysed for concentrations of SCO-101, irinotecan and SN-38 using Liquid Chromatography with Tandem Mass Spectrometric Detection (LC-MS/MS) bioanalytical method calibrated and validated in the rant 300 to 90.000 ng/ml. The method and system, including validation were according to industry standard. Data were analysed using commercially available software such as Win-Non-Lin (available from Certara inc.)
A trial was setup to address the safety, tolerability, and efficacy of SCO-101 given orally for 6 days followed by FOLFIRI at varying doses from day 5 to 7, in a biweekly schedule, in patients with metastatic colorectal cancer who have formerly been treated with FOLFIRI and afterwards progressed. The first part of the study was a dose-finding study, where the impact of SCO-101 on the pharmacokinetics (PK) of SN-38 was studied.
12 patients from the dose-finding part of the study received 150 mg SCO-101 for 6 days and […] of the recommended dose of FOLFIRI. 6 of the patients had RAS wildtype tumors and these patients were subjected to further analysis.
Blood for pharmacokinetic analysis was sampled from the patients were taken at 1, 2, 4, 8, 24, 48, and 96 hours after treatment with FOLFIRI and SCO-101.

**Q.** Which “Uptake of SN-38 in the presence vs absence of SCO-101, all seeded cell densities” value ([1]; 25 μM SCO-101, HT29 SN-38 resistant) does the source give for `O=C(Nc1cc(C(F)(F)F)cc(C(F)(F)F)c1)Nc1ccc(Br)cc1-c1nnn[nH]1` [SCO-101] here?
**A.** increased uptake

**Q.** What about the “Uptake of SN-38 relative to blank HBSS transport buffer control” value ([1]; 25 μM test compound, HT29 SN-38 resistant, ANOVA α=0.05) of the same compound?
**A.** significantly increased

**Q.** And the EC50 ([1]; HT29 SN-38 res cell monolayers, read-out: Estimated EC50-value for increase in uptake of SN-38)?
**A.** 9.8 µM

**Q.** And the “Uptake of SN-38 with increasing concentrations of SCO-101” value ([1]; SCO-101 100 to 0.5 μM, HT29 SN-38 resistant)?
**A.** concentration-dependent increase

**Q.** What about the “Uptake of SN-38 in the presence vs absence of SCO-101, all seeded cell densities” value ([2]; 25 μM SCO-101, HT29 parental) of the same compound?
**A.** increased uptake

**Q.** What about the “Uptake of SN-38 relative to blank HBSS transport buffer control” value ([2]; 25 μM test compound, HT29 parental, ANOVA α=0.05) of the same compound?
**A.** significantly increased

**Q.** What about the EC50 ([2]; HT29 parental cell monolayers, read-out: Estimated EC50-value for increase in uptake of SN-38) of the same compound?
**A.** 9.1 µM

**Q.** What about the “Uptake of SN-38 with increasing concentrations of SCO-101” value ([2]; SCO-101 100 to 0.5 μM, HT29 parental) of the same compound?
**A.** concentration-dependent increase

**Q.** And the “Tolerability of the combined treatment” value ([3]; SCO-101 in combination with FOLFIRI, metastatic colorectal cancer patients)?
**A.** well tolerated

**Q.** What about the “Toxicity profile (adverse events)” value ([3]; patients treated with SCO-101 and 90 mg irinotecan/m2 (50% FOLFIRI)) of the same compound?
**A.** only grade 1 and 2 adverse events
